Results reported in patent publication US11123355B2, “Antiviral benzyl-amine phosphodiamide compounds” (Merck Sharp & Dohme Corp., priority 2016, dated 2021).
Like-named read-outs stand apart in the source and are kept apart here.

Test system: HIV-1 (H9/IIB strain)
Assay: Multiple Round HIV-1 Infection Assay (Viking Assay) in MT4-GFP cells
Assay type: cell-based
Settings: inhibition of reproductive ratio R0
Description: Assessing antiviral potency in a Multiple Round HIV-1 Infection Assay (Viking Assay) The antiviral activity of the tenofovir prodrugs of the Examples herein was assessed in an assay that measures the rate of replication of HIV in cell culture, termed the Viking assay (VIral KINetics in Green cells) and performed as follows. HIV-1 replication was monitored using MT4-gag-GFP clone D3 (hereafter designated MT4-GFP), which are MT-4 cells modified to harbor a GFP reporter gene, the expression of which is dependent on the HIV-1 expressed proteins tat and rev. Productive infection of an MT4-GFP cell with HIV-1 results in GFP expression approximately 24 h post-infection. MT4-GFP cells were maintained at 37° C./5% CO2/90% relative humidity in RPMI 1640 supplemented with 10/o fetal bovine serum, 100 U/ml penicillin/streptomycin, and 400 μg/ml G418 to maintain the reporter gene. For infections, MT4-GFP cells were placed in the same medium lacking G418 and infected overnight with HIV-1 (H9/IIB strain) virus at an approximate multiplicity of infection of 0.01 in the same incubation conditions. Cells were then washed and re-suspended in either RPMI 1640 supplemented with 10% or 50% normal human serum (NHS) at 1.6×10^5 cells/mL (10% NHS or 50% NHS, respectively). Compound plates were prepared by dispensing compounds dissolved in DMSO into wells of 384 well poly-D-lysine-coated plates (0.2 μl/well) using an ECHO acoustic dispenser. Each compound was tested in a 10-point serial 3-fold dilution (typical final concentrations: 8.4 μM-0.42 nM). Controls included no inhibitor (DMSO only) and a combination of three antiviral agents (efavirenz, indinavir, an in-house integrase strand transfer inhibitor at final concentrations of 4 μM each). Cells were added (50 μL/well) to compound plates and the infected cells were maintained at 37° C./5% CO2/90% relative humidity.
Infected cells were quantified at two time points, ˜48 h and ˜72 h post-infection, by counting the number of green cells in each well using an Acumen eX3 scanner. The increase in the number of green cells over ˜24 h period gives the reproductive ratio, R0, which is typically 5-15 and has been shown experimentally to be in logarithmic phase (data not shown). Inhibition of R0 is calculated for each well, and IC50s determined by non-linear 4-parameter curve fitting.

[1] = MT4-GFP cells infected with HIV-1, 10% normal human serum, read-out: Viking, IC50 (10% NHS)
[2] = MT4-GFP cells infected with HIV-1, 50% normal human serum, read-out: Viking, IC50 (50% NHS)

Structure (SMILES)	IC50 [1] [µM]	IC50 [2] [µM]
CCCOC(=O)C(C)(C)NP(=O)(CO[C@H](C)Cn1cnc2c(N)ncnc21)N[C@@H](C)c1ccc(Cl)cc1 (stereo partly drawn) [Example 13B, propyl 2-(((R)-((((R)-1-(6-amino-9H-purin-9-yl)propan-2-yl)oxy)methyl)(((S)-1-(4-chlorophenyl)ethyl)amino)phosphoryl)ami-no)-2-methylpropanoate and propyl 2-(((S)-((((R)-1-(6-amino-9H-purin-9-yl)propan-2-yl)oxy)methyl)(((S)-1-(4-chlorophenyl)ethyl)amino)phosphoryl)ami-no)-2-methylpropanoate]	0.073	0.31
CCCOC(=O)C(C)(C)N[P@@](=O)(CO[C@H](C)Cn1cnc2c(N)ncnc21)N[C@@H](C)c1ccc(OC)cc1 [Example 14A, propyl 2-(((R)-((((R)-1-(6-amino-9H-purin-9-yl)propan-2-yl)oxy)methyl)(((S)-1-(4-methoxyphenyl)ethyl)amino)phosphoryl)a-mino)-2-methylpropanoate and propyl 2-(((S)-((((R)-1-(6-amino-9H-purin-9-yl)propan-2-yl)oxy)methyl)(((S)-1-(4-methoxyphenyl)ethyl)amino)phosphoryl)a-mino)-2-methylpropanoate]	0.025	0.14
CCCOC(=O)C(C)(C)N[P@@](=O)(CO[C@H](C)Cn1cnc2c(N)ncnc21)N[C@@H](C)c1ccc(OC)cc1 [Example 14B, propyl 2-(((R)-((((R)-1-(6-amino-9H-purin-9-yl)propan-2-yl)oxy)methyl)(((S)-1-(4-methoxyphenyl)ethyl)amino)phosphoryl)a-mino)-2-methylpropanoate and propyl 2-(((S)-((((R)-1-(6-amino-9H-purin-9-yl)propan-2-yl)oxy)methyl)(((S)-1-(4-methoxyphenyl)ethyl)amino)phosphoryl)a-mino)-2-methylpropanoate]	0.052	0.28
CCCOC(=O)C(C)(C)N[P@@](=O)(CO[C@H](C)Cn1cnc2c(N)ncnc21)N[C@H](C)c1ccc(OC)cc1 [Example 15A, propyl 2-(((R)-((((R)-1-(6-amino-9H-purin-9-yl)propan-2-yl)oxy)methyl)(((R)-1-(4-methoxyphenyl)ethyl)amino)phosphoryl)a-mino)-2-methylpropanoate and propyl 2-(((S)-((((R)-1-(6-amino-9H-purin-9-yl)propan-2-yl)oxy)methyl)(((R)-1-(4-methoxyphenyl)ethyl)amino)phosphoryl)a-mino)-2-methylpropanoate]	0.074	0.41
CCCOC(=O)C(C)(C)N[P@@](=O)(CO[C@H](C)Cn1cnc2c(N)ncnc21)N[C@H](C)c1ccc(OC)cc1 [Example 15B, propyl 2-(((R)-((((R)-1-(6-amino-9H-purin-9-yl)propan-2-yl)oxy)methyl)(((R)-1-(4-methoxyphenyl)ethyl)amino)phosphoryl)a-mino)-2-methylpropanoate and propyl 2-(((S)-((((R)-1-(6-amino-9H-purin-9-yl)propan-2-yl)oxy)methyl)(((R)-1-(4-methoxyphenyl)ethyl)amino)phosphoryl)a-mino)-2-methylpropanoate]	0.0074	0.04
CCCOC(=O)C(C)(C)N[P@@](=O)(CO[C@H](C)Cn1cnc2c(N)ncnc21)N[C@@H](C)c1ccccc1OC [Example 17A, propyl 2-(((R)-((((R)-1-(6-amino-9H-purin-9-yl)propan-2-yl)oxy)methyl)(((S)-1-(2-methoxyphenyl)ethyl)amino)phosphoryl)a-mino)-2-methylpropanoate and propyl 2-(((S)-((((R)-1-(6-amino-9H-purin-9-yl)propan-2-yl)oxy)methyl)(((S)-1-(2-methoxyphenyl)ethyl)amino)phosphoryl)a-mino)-2-methylpropanoate]	0.024	0.31
CCCOC(=O)C(C)(C)N[P@@](=O)(CO[C@H](C)Cn1cnc2c(N)ncnc21)N[C@@H](C)c1ccccc1OC [Example 17B, propyl 2-(((R)-((((R)-1-(6-amino-9H-purin-9-yl)propan-2-yl)oxy)methyl)(((S)-1-(2-methoxyphenyl)ethyl)amino)phosphoryl)a-mino)-2-methylpropanoate and propyl 2-(((S)-((((R)-1-(6-amino-9H-purin-9-yl)propan-2-yl)oxy)methyl)(((S)-1-(2-methoxyphenyl)ethyl)amino)phosphoryl)a-mino)-2-methylpropanoate]	0.084	0.51
CCCOC(=O)C(C)(C)NP(=O)(CO[C@H](C)Cn1cnc2c(N)ncnc21)N[C@@H](C)c1ccc(OC(F)(F)F)cc1 (stereo partly drawn) [Example 19B, propyl 2-(((R)-((((R)-1-(6-amino-9H-purin-9-yl)propan-2-yl)oxy)methyl)(((S)-1-(4-(trifluoromethoxy)phenyl)ethyl)amino)phos-phoryl)amino)-2-methylpropanoate and propyl 2-(((S)-((((R)-1-(6-amino-9H-purin-9-yl)propan-2-yl)oxy)methyl)(((S)-1-(4-(trifluoromethoxy)phenyl)ethyl)amino)phos-phoryl)amino)-2-methylpropanoate]	0.084	0.36
CCCOC(=O)C(C)(C)NP(=O)(CO[C@H](C)Cn1cnc2c(N)ncnc21)N[C@H](C)c1ccccc1OC (stereo partly drawn) [Example 20A, propyl 2-(((R)-((((R)-1-(6-amino-9H-purin-9-yl)propan-2-yl)oxy)methyl)(((R)-1-(2-methoxyphenyl)ethyl)amino)phosphoryl)a-mino)-2-methylpropanoate and propyl 2-(((S)-((((R)-1-(6-amino-9H-purin-9-yl)propan-2-yl)oxy)methyl)(((R)-1-(2-methoxyphenyl)ethyl)amino)phosphoryl)a-mino)-2-methylpropanoate]	0.061	0.59
CCCOC(=O)C(C)(C)NP(=O)(CO[C@H](C)Cn1cnc2c(N)ncnc21)N[C@H](C)c1ccccc1OC (stereo partly drawn) [Example 20B, propyl 2-(((R)-((((R)-1-(6-amino-9H-purin-9-yl)propan-2-yl)oxy)methyl)(((R)-1-(2-methoxyphenyl)ethyl)amino)phosphoryl)a-mino)-2-methylpropanoate and propyl 2-(((S)-((((R)-1-(6-amino-9H-purin-9-yl)propan-2-yl)oxy)methyl)(((R)-1-(2-methoxyphenyl)ethyl)amino)phosphoryl)a-mino)-2-methylpropanoate]	0.0095	0.053
CCCOC(=O)C(C)(C)NP(=O)(CO[C@H](C)Cn1cnc2c(N)ncnc21)N[C@H](C)c1ccc(OC(F)(F)F)cc1C (stereo partly drawn) [Example 21A, Propyl 2-(((R)-((((R)-1-(6-amino-9H-purin-9-yl)propan-2-yl)oxy)methyl)(((R)-1-(2-methyl-4-(trifluoromethoxy)phenyl)ethyl)amino)phos-phoryl)amino)-2-methylpropanoate and propyl 2-(((S)-((((R)-1-(6-amino-9H-purin-9-yl)propan-2-yl)oxy)methyl)(((R)-1-(2-methyl-4-(trifluoromethoxy)phenyl)ethyl)amino)phos-phoryl)amino)-2-methylpropanoate]	0.15	0.8
CCCOC(=O)C(C)(C)N[P@@](=O)(CO[C@H](C)Cn1cnc2c(N)ncnc21)N[C@H](c1cccc(F)c1)C(F)(F)F [Example 22A, propyl 2-(((R)-((((R)-1-(6-amino-9H-purin-9-yl)propan-2-yl)oxy)methyl)(((R)-2,2,2-trifluoro-1-(3-fluorophenyl)ethyl)amino)phosphoryl)ami-no)-2-methylpropanoate and propyl 2-(((S)-((((R)-1-(6-amino-9H-purin-9-yl)propan-2-yl)oxy)methyl)(((R)-2,2,2-trifluoro-1-(3-fluorophenyl)ethyl)amino)phosphoryl)ami-no)-2-methylpropanoate]	0.0081	0.074
CCCOC(=O)C(C)(C)N[P@@](=O)(CO[C@H](C)Cn1cnc2c(N)ncnc21)N[C@H](c1cccc(F)c1)C(F)(F)F [Example 22B, propyl 2-(((R)-((((R)-1-(6-amino-9H-purin-9-yl)propan-2-yl)oxy)methyl)(((R)-2,2,2-trifluoro-1-(3-fluorophenyl)ethyl)amino)phosphoryl)ami-no)-2-methylpropanoate and propyl 2-(((S)-((((R)-1-(6-amino-9H-purin-9-yl)propan-2-yl)oxy)methyl)(((R)-2,2,2-trifluoro-1-(3-fluorophenyl)ethyl)amino)phosphoryl)ami-no)-2-methylpropanoate]	0.042	0.33
